# Test results from ChEMBL document CHEMBL1201862, “PubChem BioAssay data set” (2004).
#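 These data come from cells grown in 96-well plates and exposed to compound for 48 hours at five concentrations. GI50 = concentration required for 50% inhibition of growth.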 Active and inactive are the calls of the source. Rule as the data show it: active = GI50 up to about 1.1 µM and inactive = higher.
# Legend:
# Assay in all cases: NCI tumour cell line growth inhibition, 48 h
# 786-0 = system: 786-0
# A498 = system: A498
# CCRF-CEM = system: CCRF-CEM
# DLD-1 = system: DLD-1
# K562 = system: K562
# KM-20L2 = system: KM-20L2
# LOX IMVI = system: LOX IMVI
# MOLT-4 = system: MOLT-4
# NCI-H23 = system: NCI-H23
# RPMI-8226 = system: RPMI-8226
# SF-539 = system: SF-539
# SK-OV-3 = system: SK-OV-3
# SNB-78 = system: SNB-78
# SR = system: SR
# TK-10 = system: TK-10
Compound,GI50 (786-0),GI50 (A498),GI50 (CCRF-CEM),GI50 (DLD-1),GI50 (K562),GI50 (KM-20L2),GI50 (LOX IMVI),GI50 (MOLT-4),GI50 (NCI-H23),GI50 (RPMI-8226),GI50 (SF-539),GI50 (SK-OV-3),GI50 (SNB-78),GI50 (SR),GI50 (TK-10)
CC(=O)NNc1nc(C)c(C(=O)NNC(=O)C(=O)Nc2ccccc2C#N)s1,> 100 µM (inactive),> 100 µM (inactive),65.9 µM (inactive),> 100 µM (inactive),> 100 µM (inactive),> 100 µM (inactive),> 100 µM (inactive),> 100 µM (inactive),> 100 µM (inactive),> 100 µM (inactive),> 100 µM (inactive),> 100 µM (inactive),> 100 µM (inactive),87.1 µM (inactive),> 100 µM (inactive)
O=C1C(Br)=CC2([N+](=O)[O-])CCNC3=C(C4=NCCc5c[nH]c(c54)C3=O)C2=C1Br (stereo unspecified),,5.06 µM (inactive),0.304 µM (active),0.364 µM (active),0.424 µM (active),0.414 µM (active),1.56 µM (inactive),1.14 µM (inactive),1.39 µM (inactive),0.159 µM (active),2.11 µM (inactive),3.13 µM (inactive),2.09 µM (inactive),,
Cc1nc2ccccc2c(=O)n1Nc1ccc(C(=O)O)cc1,,> 100 µM (inactive),> 100 µM (inactive),> 100 µM (inactive),> 100 µM (inactive),> 100 µM (inactive),> 100 µM (inactive),> 100 µM (inactive),> 100 µM (inactive),> 100 µM (inactive),> 100 µM (inactive),> 100 µM (inactive),> 100 µM (inactive),,
COc1ccc(Cc2nn(C3OC(COC(C)=O)C(OC(C)=O)C(OC(C)=O)C3OC(C)=O)c(=S)n(-c3ccc(OC)cc3)c2=O)cc1 (stereo unspecified),,> 100 µM (inactive),> 100 µM (inactive),> 100 µM (inactive),> 100 µM (inactive),> 100 µM (inactive),> 100 µM (inactive),> 100 µM (inactive),> 100 µM (inactive),> 100 µM (inactive),> 100 µM (inactive),> 100 µM (inactive),> 100 µM (inactive),,
